{"source": "patent US10517851B2", "about": "“Vasopressin-like action enhancer” (KYORIN PHARMACEUTICAL CO., LTD., priority 2015, dated 2019)", "key": {"female rats [1]": {"system": "female rats", "assay": "Antidiuretic action in water-loaded rats, urine collected for 2 hours (single agent)", "type": "in vivo, rat", "conditions": "oral water load 25 mL/kg, FIG. 1 / FIG. 2; for antidiuretic action: intravenous dose series; for reduction of the urinary volume at the maximum: intravenous", "procedure": "A method according to Watanabe et al. (Watanabe et al 2013 Antidiuretic effect of antimuscanrinic agents in rat model depends on C-fibre afferent nerves in the bladder. BJU Int 112(1) 131-6) was carried out with a partial modification. Female rats (10 to 11-week-old, obtained from Charles River Laboratories Japan) were intravenously administered (1 mL/kg) with a vehicle (saline) or imidafenacin ([…]) and subjected to an oral water load (25 mL/kg). After the rats were transferred to Bollmann cages, urine was collected for 2 hours from each rat via a catheter previously inserted and fixed to the bladder apex of the rat (8 rats in each group). The method according to Watanabe et al. (Watanabe et al 2013 Antidiuretic effect of antimuscanrinic agents in rat model depends on C-fibre afferent nerves in the bladder. BJU Int 112(1) 131-6) was carried out with a partial modification. Female rats (10 to 11-week-old, obtained from Charles River Laboratories Japan) were intravenously administered (1 mL/kg) with a vehicle (saline) or desmopressin ([…]) and subjected to an oral water load (25 mL/kg). After the rats were transferred to Bollmann cages, urine was collected for 2 hours from each rat via a catheter previously inserted and fixed to the bladder apex of the rat (8 rats in each group)."}, "female rats [2]": {"system": "female rats", "assay": "Effect of mozavaptan (V2 antagonist) on antidiuretic action in water-loaded rats", "type": "in vivo, rat", "procedure": "The method according to Watanabe et al. (Watanabe et al 2013 Antidiuretic effect of antimuscanrinic agents in rat model depends on C-fibre afferent nerves in the bladder. BJU Int 112(1) 131-6) was carried out with a partial modification. Female rats (10 to 11-week-old, obtained from Charles River Laboratories Japan) were intravenously administered with a vehicle (dimethylformamide or saline); mozavaptan (a dose of 0.1 mL/kg of a 30 mg/mL solution); 3 mg/kg of mozavaptan and imidafenacin (10 μg/kg or 300 μg/kg); 3 mg/kg of mozavaptan and desmopressin (0.003 μg/kg or 0.1 μg/kg); or 3 mg/kg of mozavaptan, imidafenacin (10 μg/kg or 300 μg/kg) and desmopressin (0.003 μg/kg or 0.1 μg/kg), and subjected to an oral water load (25 mL/kg). After the rats were transferred to Bollmann cages, urine was collected for 2 hours from each rat via a catheter previously inserted and fixed to the bladder apex of the rat (8 rats in each group)."}, "vasopressin": {"system": "vasopressin", "conditions": "rat; previous report BJU Int 112(1) 131-6; cited from earlier work"}}}
{"smiles": "NC(=O)CC[C@@H]1NC(=O)[C@H](Cc2ccccc2)NC(=O)[C@H](Cc2ccc(O)cc2)NC(=O)CCSSC[C@@H](C(=O)N2CCC[C@H]2C(=O)N[C@H](CCCN=C(N)N)C(=O)NCC(N)=O)NC(=O)[C@H](CC(N)=O)NC1=O", "note": "[desmopressin]", "values": [{"measurement": "antidiuretic action", "setting": "female rats [1]", "value": "dose-dependent manner"}, {"measurement": "reduction of the urinary volume at the maximum", "setting": "female rats [1]", "value": "about 100%"}, {"measurement": "antidiuretic action of desmopressin at the maximum reaction dose in the presence of mozavaptan", "setting": "female rats [2]; desmopressin 0.1 μg/kg with 3 mg/kg of mozavaptan, intravenous, FIG. 4", "value": "recovered"}, {"measurement": "antidiuretic action of desmopressin in the presence of mozavaptan", "setting": "female rats [2]; desmopressin with 3 mg/kg of mozavaptan, intravenous, FIG. 4", "value": "also suppressed"}]}
{"smiles": "Cc1nccn1CCC(C(N)=O)(c1ccccc1)c1ccccc1", "note": "[imidafenacin]", "values": [{"measurement": "antidiuretic action", "setting": "female rats [1]", "value": "dose-dependent manner"}, {"measurement": "reduction of the urinary volume at the maximum", "setting": "female rats [1]", "value": "about 50%"}, {"measurement": "antidiuretic action on addition of imidafenacin to the mozavaptan and desmopressin group", "setting": "female rats [2]; imidafenacin 300 μg/kg added to 3 mg/kg mozavaptan and 0.1 μg/kg desmopressin, FIG. 5", "value": "further enhanced"}, {"measurement": "antidiuretic action of imidafenacin in the presence of mozavaptan", "setting": "female rats [2]; imidafenacin at the maximum reaction dose of 300 μg/kg with 3 mg/kg of mozavaptan, intravenous, FIG. 4", "value": "completely suppressed"}, {"measurement": "release of vasopressin", "setting": "vasopressin", "value": "not affected"}]}
